Data from patent US20200345733A1, “Microbicidal Pyrimidine or Triazine Containing Compounds” (Janssen Sciences Ireland UC, priority 2002, published 2020).
Values after ≈ are worked out from the molar mass of the structure shown. Read-outs that look alike come from different tables or passages of the source.

Key:
[1] = Cytotoxicity in CEM T cells; type: cell-based; conditions: human; viability of CEM T cells decreased by 50%
Description: As a reference system, CEM T cells (obtained from the American Type culture Collection in Rockville, Md.) were used under previously standardized conditions (Balzarini J, et al. AIDS Res Hum Retroviruses 10 Apr. 2000, 16: 517-528). Briefly, cells were suspended at 250,000 cells/ml in RPMI-1640, supplemented with 10% fetal calf serum, 2 mM L-glutamine and 0.075% NaHCO3 and infected with HTLV-IIIB at ˜20 TCID50. 100 μl of a 5-fold dilution series of the drugs were immediately added to 100 μl of the infected cells in 200-μl well plates. After 4 to 5 days of incubation at 37° C., the cultures were examined for syncytium formation. The EC50 is the concentration required to inhibit syncytium formation by 50%. Cytotoxicity was evaluated and given as CC50 values, which is the concentration at which the viability of the CEM cells is decreased by 50%.

[2] = biological target: HIV-1 reverse transcriptase (Human immunodeficiency virus type 1 group M subtype B, UniProt P04585); experiment: Cell-free HIV-1 reverse transcriptase inhibition; type: biochemical; conditions: inhibits HIV-1 reverse transcriptase activity by 50%, cell-free assay
Description: Next to antiviral activity in CEM T cells, inhibition of HIV-1 reverse transriptase activity was measured in a cell-free assay, in which the 50% inhibitory concentration (IC50) of said compound is indicated (FIG. 1). The CEM system, using a lab T cell-line and the SI/X4labstrain HTLV-IIIb, was not directly relevant to sexual transmission, where primary T cells, dendritic cells and NSI/R5 viruses are involved. Therefore, we focussed on prevention of NSI/R5 HIV infection in MO-DC/CD4(+) T cell co-cultures.

[3] = system: T-lymphocyte proliferation; experiment: Immune suppressive activity in mixed leukocyte cultures (MO-DC stimulators, allogenic CD4(+) T cells); type: cell-based
Description: The immune suppressive activity of compound B was measured in mixed leukocyte cultures (MLC), with MO-DC as stimulators and allogenic CD4(+) T cells as responders. Cultures of 3×10^3 MO-DC and 100×10^3 T cells were set-up in 6-fold in a 96-well plate, in the presence or absence of a dilution series of compound B. In a first part of experiments, compound B was removed after 24 hours by washing and cells were cultured for an additional 4 days. In a second part of experiments, compound B remained present during the 5-day culture period. In both set-ups, 1 μCi of [methyl-^3H] thymidine (TRA. 120 from Amersham Pharmacia, Buckinghamshire, U.K.) was added to each well at the fifth day of culture. Plates were harvested 7 hours later and [methyl-^3H] thymidine incorporation was measured in a scintillation counter (Top Count™, Canberra-Packard, Zellik, Belgium) and expressed as counts per minute (CPM). The
(§1) Immune Suppressive Concentration (ISC50) is defined as the drug concentration inhibiting 50% of the lymphocyte proliferation. Cellular toxicity was evaluated microscopically by […] staining of co-cultures of MO-DC and allogeneic CD4(+) T cells , cultured for 5 days in the presence of a dilution series of drug. Part of the harvested cells was also used for flowcytometric analysis of lymphocyte blast formation and apopoptosis, based on forward and side scatter.

[4] = system: T cells; type: cell-based; conditions: human, 5 days
Description: as §1
Additional experiments were done to evaluate if inhibition of DNA synthesis corresponded to increased mortality of T cells or only to decreased blast formation.

[5] = system: HIV-1 (SF162 and 1/BX08); experiment: hu-SCID animal model of vaginal transmission of HIV; type: in vivo; conditions: single intravaginal 25 μl gel (carbopol 940 or HEC; 0.225, 0.0225 or 0.00225 mM) 15-20 minutes before challenge
Description: In order to mimic the in vivo transmission that occurs in humans, a hu-SCID animal model of vaginal transmission of HIV for the evaluation of vaginal microbicides was used (Di Fabio et al., AIDS 2001, 15, 2231-2234 Gels made up of carbopol 940 or hydroxyethyl cellulose (HEC), two water soluble polymers, were prepared containing Compound B in different concentrations (0.225 mM; 0.0225 mM or 0.00225 mM). Animals received a single intravaginal application of 25 μl of gel containing Compound B, 15-20 minutes prior to a non invasive vaginal challenge with 2×10^6 human peripheral blood lymphocytes PBL, (hu-PBL) previously infected in vitro with non-syncitium (NSI) strains of HIV-1 (SF162 and 1/BX08). Cell to cell transmission was assessed by p24 production and by quantitative PCR.

[6] = system: HIV-1 RF; experiment: Direct antiviral activity, immobilised virus with Jurkat-tat indicator cells; type: cell-based
[7] = system: HIV; experiment: Cervical explant model; type: cell-based
Description: Compound B, at a concentration of 10 nM, was able to block infection of the tissue and at a concentration of 100 nM the compound could prevent transfer of infectious virus from migratory dendritic cells to co-cultured T-cells.

[8] = system: primary HIV strains (X4, CCR5 and X41R5); experiment: Efficacy against primary HIV strains in relevant cell lines; type: cell-based
[9] = system: cervical epithelial cells (MEI180); experiment: MTT viability of cervical epithelial cells; type: cell-based; conditions: exposure 1 hr, 24 hrs or 5 days
[10] = system: Lactobacillus species; experiment: In vitro antibacterial activity, lactobacilli; type: cell-based; conditions: 33 different Lactobacillus species from recto-vaginal cultures of pregnant women; read-out: minimum inhibitory concentration (MIC50)
From the text: (§2) Compatibility with lactobacilli and normal vaginal flora is an important requirement for a vaginal microbicide. Activity on pathogens of sexual transmitted diseases is an additional advantage. In in vitro tests for antibacterial activity of compound B, the following susceptibilities were found: • 33 different Lactobacillus species isolated from recto-vaginal cultures of pregnant women were studied.

[11] = system: Hemophilus ducreyi; experiment: In vitro antibacterial activity, Hemophilus ducreyi; type: cell-based
From the text: as §2

[12] = system: Neisseria gonorrhoea strains; experiment: In vitro antibacterial activity, Neisseria gonorrhoea; type: cell-based; conditions: some strains
From the text: as §2

Cc1cc(C)c(Nc2ccnc(Nc3ccc(C#N)cc3)n2)c(C)c1 [compound B, 4-[[4-[(2,4,6-trimethylphenyl)amino]-2-pyrimidinyl]amino]benzonitrile]
CC50 [1]: 1370 nM | IC50 [2]: 24 nM | ISC50 (50% Immune Suppressive Concentration) ([3]; drug present continuously during 5-day culture): about 1,500 nM | ISC50 (50% Immune Suppressive Concentration) ([3]; drug present continuously during 5-day culture, listed as Comp. B): 1,515 nM | ISC50 (50% Immune Suppressive Concentration) ([3]; drug present during first 24 hours only): ~25,000 nM | ISC50 (50% Immune Suppressive Concentration) ([3]; drug present during first 24 hours only, listed as Comp. B): 24,886 nM | 50% death rate of T cells [4]: 54,222 nM | Fifty percent inhibition of blast formation [4]: 3,916 nM | Systemic infection after vaginal challenge with HIV-1 infected hu-PBL (p24, quantitative PCR) [5]: systemic infection was successfully inhibited | Concentration providing protection of infection ([6]; virus pretreated prior to addition of cells, without removal of the compound): 10 nM | Concentration providing protection of infection ([6]; virus treated 1 hour at 37° C., compound removed by washing, co-culture 8 days): 100 nM | Concentration able to block infection of the tissue [7]: 10 nM | Concentration preventing transfer of infectious virus from migratory dendritic cells to co-cultured T-cells [7]: 100 nM | Efficacy against primary HIV strains [8]: good efficacy | Toxicity (viability, MTT assay) ([9]; 100 nM): some reduction of viability | Toxicity (viability, MTT assay) ([9]; 50 μM): no toxicity | MIC50 [10]: > 32 µg/mL | MIC50 [11]: 1 µg/mL (≈ 3.04 µM) | MIC50 ([11]; second value): 2 µg/mL (≈ 6.07 µM) | Inhibition of Neisseria gonorrhoea strains [12]: inhibited at clinical relevant concentrations
